Here are results for one compound from patent US20130184302A1, “METHODS FOR TREATING IRRITABLE BOWEL SYNDROME (IBS) AND INFECTIONS” (priority 2011, published 2013).

Each structure is given as a SMILES string.

Holding throughout (format): in vivo, human
Series [1] has as its system patients with diarrhea-predominant IBS. In words: Tolerability, adverse events, rifaximin 550 mg BID study. The note with it: rifaximin 550 mg BID 14 days.
Series [2] relates to C. difficile infection (CDI). Nature of the series: CDI trial: number of unformed stools during the treatment period. The text has this: FIG. 18 sets for the average number of unformed stools per day of the study.
In series [3] the test system is patients with non-constipation IBS (non-C IBS). In words: Adverse events and discontinuation, rifaximin 550 mg TID study. The note with it: 550 mg rifaximin TID.
The subject of series [4] is C. difficile infection (CDI). Nature of the series: CDI trial: global cure of diarrhea. The text has this: Subjects having a global cure of diarrhea are set for the in Table 45. Global cure of diarrhea was defined as subjects who were cured of diarrhea at TOC without recurrence at follow up.
Where [5] appears, read: Rifaximin N = 117, Vancomycin N = 115.
[6] abbreviates: cured of diarrhea at TOC without recurrence at follow up, Rifaximin N = 117, Vancomycin N = 115.

On to `CO[C@H]1/C=C/O[C@@]2(C)Oc3c(C)c(O)c4c(O)c(c5c(nc6cc(C)ccn65)c4c3C2=O)NC(=O)/C(C)=C\C=C\[C@H](C)[C@H](O)[C@@H](C)[C@@H](O)[C@@H](C)[C@H](OC(C)=O)[C@@H]1C` [Rifaximin, (2S,16Z,18E,20S,21S,22R, 23R,24R,25S,26S,27S,28E)-5,6,21,23,25 Pentahydroxy-27-methoxy-2,4,11,16,20,22,24,26-octamethyl-2,7-(epoxypentadeca-(1,11,13)trienimino) benzofuro (4,5-e) pyrido(1,2,-a) benzimidazole-1,15(2H)-dione,25-acetate], for which the “Tolerability, incidence of adverse events compared with placebo” value in series [1] was “well tolerated”. Further, the “Adjusted mean number of unformed stools-ANOVA: Treatment Difference (95% CI)” value in series [2] (Rifaximin vs Vancomycin, treatment period) is 0.46 (−0.08, 1.00). Further, the “Overall treatment difference in number of unformed stools-Mixed Model: Treatment Difference (95% CI)” value in series [2] (Rifaximin vs Vancomycin, mixed effects model with treatment, center, study day as fixed effects) was 0.32 (−0.08, 0.72). For the same compound, the “Adjusted mean number of unformed stools-ANOVA” value in series [2] (during the treatment period, ANOVA model with treatment and center as main effects, Rifaximin N = 117, Vancomycin N = 115) amounted to 2.36. The “Subjects with skin or subcutaneous tissue disorders” value in series [3] was determined as 1.3%. Moreover, in series [4] (setting [5]), the “Global Cure of Diarrhea: No, number of subjects” value is recorded as 34 and the “Global Cure of Diarrhea: No, percent of subjects” value is listed as “(29%)”. Further, in series [4] (Rifaximin vs Vancomycin), the “Global Cure of Diarrhea: Treatment Difference” value is −3.0%. In addition, in series [4] (setting [6]), the “Global Cure of Diarrhea: Yes, number of subjects” value was 83 and the “Global Cure of Diarrhea: Yes, percent of subjects” value is recorded as “(71%)”.
